ChEMBL document CHEMBL3774310, “Discovery of antitumor anthra[2,3-b]furan-3-carboxamides: Optimization of synthesis and evaluation of antitumor properties” (Eur J Med Chem, 2016)
Activity calls are given as the source filed them. The rule behind the calls is not given here.

Key:
[1] = test system: HCT-116; test: Induction of apoptosis in human HCT116 cells assessed as viable cells at 1 uM after 24 hrs by Annexin V-FITC/propidium iodide staining based assay (reference value: 95 +/- 2%); assay type: functional
[2] = test system: HCT-116; test: Induction of apoptosis in p53 knockout human HCT116 cells assessed as viable cells at 1 uM after 48 hrs by Annexin V-FITC/propidium iodide staining based assay (reference value: 93 +/- 3%); assay type: functional
[3] = test system: HCT-116; test: Induction of apoptosis in human HCT116 cells assessed as necrotic cells at 1 uM after 48 hrs by Annexin V-FITC/propidium iodide staining based assay (reference value: 2 +/- 1%); assay type: functional
[4] = Cell cycle arrest in p53 knockout human HCT116 cells assessed as decrease in S phase at 1 uM after 24 hrs; assay type: functional, cell-based; conditions: HCT-116
[5] = Antiproliferative activity against human K562/4 cells after 72 hrs by MTT assay; conditions: K562/4, 72 h
[6] = Cell cycle arrest in human HCT116 cells assessed as accumulation in G2/M phase at 1 uM after 24 hrs; assay type: functional, cell-based; conditions: HCT-116
[7] = test system: HCT-116; test: Induction of apoptosis in p53 knockout human HCT116 cells assessed as early apoptotic cells at 1 uM after 48 hrs by Annexin V-FITC/propidium iodide staining based assay (reference value: 2 +/- 1%); assay type: functional
[8] = test system: Calf thymus DNA; test: Binding affinity to calf thymus DNA at 5 uM by fluorescence assay; assay type: nucleic-acid assay; conditions: Bos taurus
[9] = test system: HCT-116; test: Induction of apoptosis in human HCT116 cells assessed as late apoptotic cells at 1 uM after 48 hrs by Annexin V-FITC/propidium iodide staining based assay (reference value: 1 +/- 1%); assay type: functional
[10] = test system: HCT-116; test: Induction of apoptosis in p53 knockout human HCT116 cells assessed as viable cells at 1 uM after 24 hrs by Annexin V-FITC/propidium iodide staining based assay (reference value: 93 +/- 3%); assay type: functional
[11] = test system: HCT-116; test: Induction of apoptosis in p53 knockout human HCT116 cells assessed as late apoptotic cells at 1 uM after 24 hrs by Annexin V-FITC/propidium iodide staining based assay (reference value: 2 +/- 1%); assay type: functional
[12] = molecular target: T1, DNA topoisomerase 1 (Homo sapiens) (UniProt P11387); test: Inhibition of topoisomerase 1 (unknown origin) assessed as attenuation of enzyme-mediated relaxation of supercoiled pBR322 DNA up to 1 uM after 30 mins by agarose gel electrophoresis
T1 sequence (whole entry): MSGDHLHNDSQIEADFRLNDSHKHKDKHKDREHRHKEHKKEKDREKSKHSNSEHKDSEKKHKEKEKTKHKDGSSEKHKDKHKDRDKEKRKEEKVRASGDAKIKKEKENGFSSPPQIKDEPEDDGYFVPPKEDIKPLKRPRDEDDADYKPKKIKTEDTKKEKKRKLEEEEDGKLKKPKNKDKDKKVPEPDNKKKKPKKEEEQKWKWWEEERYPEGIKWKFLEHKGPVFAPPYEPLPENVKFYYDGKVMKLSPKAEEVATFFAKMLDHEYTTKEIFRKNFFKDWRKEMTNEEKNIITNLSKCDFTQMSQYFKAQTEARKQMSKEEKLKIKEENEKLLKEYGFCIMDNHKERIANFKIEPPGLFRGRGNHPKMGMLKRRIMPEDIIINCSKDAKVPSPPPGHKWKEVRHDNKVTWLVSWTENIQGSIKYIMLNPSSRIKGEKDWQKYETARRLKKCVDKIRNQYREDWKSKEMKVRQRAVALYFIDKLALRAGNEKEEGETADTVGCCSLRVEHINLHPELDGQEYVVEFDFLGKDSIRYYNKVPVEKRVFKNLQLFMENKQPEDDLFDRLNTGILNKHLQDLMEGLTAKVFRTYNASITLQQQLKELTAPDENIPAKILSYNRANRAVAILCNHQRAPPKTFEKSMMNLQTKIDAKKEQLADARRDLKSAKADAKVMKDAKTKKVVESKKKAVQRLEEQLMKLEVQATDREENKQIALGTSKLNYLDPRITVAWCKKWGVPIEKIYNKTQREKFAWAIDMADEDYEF

[13] = Toxicity in ip dosed DBA2/BDF1 mouse transplanted with mouse P388 cells dosed daily for 5 days; assay type: organism-based; conditions: in vivo
[14] = Cell cycle arrest in human HCT116 cells assessed as decrease in G1 phase at 1 uM after 24 hrs; assay type: functional, cell-based; conditions: HCT-116
[15] = test system: PBL; test: Cytotoxicity against human PBL assessed as reduction in cell viability after 72 hrs by MTT assay; assay type: cell-based
[16] = Cell cycle arrest in p53 knockout human HCT116 cells assessed as decrease in G1 phase at 1 uM after 24 hrs; assay type: functional, cell-based; conditions: HCT-116
[17] = test system: Calf thymus DNA; test: Binding affinity to calf thymus DNA assessed as bathochromic shift at 5 uM by spectrophotometric analysis; assay type: nucleic-acid assay; conditions: Bos taurus
[18] = test system: K562/4; test: Binding affinity to P-gp in human K562/4 cells assessed as drug accumulation at 1 uM incubated for 1 to 24 hrs by flow cytometry; assay type: cell-based
[19] = molecular target: T1, DNA topoisomerase 1 (Homo sapiens); test: Inhibition of topoisomerase 1 (unknown origin) assessed as attenuation of enzyme-mediated relaxation of supercoiled pBR322 DNA after 30 mins by agarose gel electrophoresis
[20] = test system: HCT-116; test: Induction of apoptosis in human HCT116 cells assessed as early apoptotic cells at 1 uM after 24 hrs by Annexin V-FITC/propidium iodide staining based assay (reference value: 2 +/- 1%); assay type: functional
[21] = test system: P388; test: Antitumor activity against mouse P388 cells transplanted in DBA2/BDF1 mouse assessed as mean life span at 50 mg/kg, ip dosed daily for 5 days (reference value: 9.7 +/- 1.1 day); assay type: functional
[22] = test system: HCT-116; test: Induction of apoptosis in p53 knockout human HCT116 cells assessed as early apoptotic cells at 1 uM after 24 hrs by Annexin V-FITC/propidium iodide staining based assay (reference value: 2 +/- 1%); assay type: functional
[23] = Cell cycle arrest in p53 knockout human HCT116 cells assessed as accumulation in G2/M phase at 1 uM after 24 hrs; assay type: functional, cell-based; conditions: HCT-116
[24] = test system: HCT-116; test: Induction of apoptosis in human HCT116 cells assessed as necrotic cells at 1 uM after 24 hrs by Annexin V-FITC/propidium iodide staining based assay (reference value: 2 +/- 1%); assay type: functional
[25] = Cytotoxicity against hFB-hTERT6 assessed as reduction in cell viability after 72 hrs by MTT assay; conditions: Homo sapiens, hFB-hTERT6, 72 h
[26] = Cell cycle arrest in human HCT116 cells assessed as decrease in S phase at 1 uM after 24 hrs; assay type: functional, cell-based; conditions: HCT-116
[27] = Cell cycle arrest in human HCT116 cells assessed as accumulation in sub G1 phase at 1 uM after 24 to 48 hrs relative to control; assay type: functional, cell-based; conditions: HCT-116
[28] = test system: HCT-116; test: Induction of apoptosis in human HCT116 cells assessed as viable cells at 1 uM after 48 hrs by Annexin V-FITC/propidium iodide staining based assay (reference value: 95 +/- 2%); assay type: functional
[29] = test system: HCT-116; test: Induction of apoptosis in human HCT116 cells assessed as early apoptotic cells at 1 uM after 48 hrs by Annexin V-FITC/propidium iodide staining based assay (reference value: 2 +/- 1%); assay type: functional
[30] = test system: P388; test: Antitumor activity against mouse P388 cells transplanted in DBA2/BDF1 mouse assessed as mean life span at 30 mg/kg, ip dosed daily for 5 days relative to control; assay type: functional
[31] = HCT-116, 24 h, read-out: Activity
[32] = HCT-116, 48 h, read-out: Activity

Row | SMILES | Activity [3] | Activity [4] | IC50 [5] [µM] | Activity [6] | Activity [7] | Activity [8] | Activity [9] | Activity [11] | Activity [12] | MTD at 120 h [13] [mg/kg] | Activity [14] | Activity [15] | Activity [16] | Activity [17] [nm] | Activity [18] | Activity [19] | Activity [20] | Activity [21] [days] | Activity [22] | Activity [23] | also measured
1 | CS(=O)(=O)O.Cc1oc2c(O)c3c(c(O)c2c1C(=O)N1CC[C@H](N)C1)C(=O)c1ccccc1C3=O | 30% | Active | 1.4 | Active | 46% | Active | 13% | 12% | inactive | 30 | Active | Non-toxic | Active | 9 | inactive | Dose-dependent effect | 20% | 6.5 | 17% | Active | viability at 1 µM [1, 31]: 58%; viability at 1 µM [2, 32]: 7%; viability at 1 µM [10, 31]: 54%; Activity [24]: 10%; IC50 [25]: > 50 µM; Activity [26]: Active; Activity [27]: > 70%; viability at 1 µM [28, 32]: 12%; Activity [29]: 45%; Activity [30]: 214%
2 | CS(=O)(=O)O.Cc1oc2c(O)c3c(c(O)c2c1C(=O)N1CC[C@@H](N)C1)C(=O)c1ccccc1C3=O | Active | Active | 1.3 | Active | Active | Active | Active | Active | inactive | 50 | Active | Non-toxic | Active | 9 | inactive | Dose-dependent effect | Active | 17.3 | Active | Active | Activity [1]: Active; Activity [2]: Active; Activity [10]: Active; Activity [24]: Active; IC50 [25]: > 50 µM; Activity [26]: Active; Activity [27]: > 70%; Activity [28]: Active; Activity [29]: Active; Activity [30]: 122%
